Results: patent publication US20180036289A1 (Gilead Sciences, Inc., priority 2016, published 2018)

Legend:
TT = TT cell line; 120 hours incubation
Method: (§1) All cell lines were obtained from the American Type Culture Collection (ATCC) Manassas, Va. (US). Master and working cell banks (MCB and WCB) were prepared by subculturing in ATCC-recommended media and freezing protocols (www.atcc.org). Cell line stocks for the assays were prepared from the WCB. The MCB, WCBs and assay stocks were prepared within respectively 3, 6 and 9 passages of the ATCC vial.
(§2) Solid powders of reference compounds were weighed on a calibrated balance and dissolved in 100% DMSO. DMSO samples were stored at room temperature. At the day of the experiment, the compound stock was diluted in 3.16 fold steps in 100% DMSO to obtain a 9-point dilution series. This was further diluted 31.6 times in 20 mM sterile Hepes buffer pH 7.4. A volume of 5 μl was transferred to the cells to generate a test concentration range from 3.16×10^−5M to 3.16×10^−9 M in duplicate. The final DMSO concentration during incubation was […] in all wells.
(§3) An assay stock was thawed and diluted in its ATCC recommended medium and dispensed in a 384-well plate, depending on the cell line used, at a concentration of 200-3200 cells per well in 45 μl medium. For each used cell line the optimal cell density is used. The margins of the plate were filled with phosphate-buffered saline. Plated cells were incubated in a humidified atmosphere of 5% CO2 at 37° C. After 24 hours, 5 μl of compound dilution was added and plates were further incubated for another 120 hours. After 120 hours, 25 μl of ATPlite 1Step™ (PerkinElmer) solution was added to each well, and subsequently shaken for 2 minutes. After 10 minutes of incubation in the dark, the luminescence was recorded on an Envision multimode reader (PerkinElmer).
(§4) IC50s were calculated by non-linear regression using IDBS XLfit 5. The percentage growth after 120 h (%-growth) was calculated as follows: 100%×(luminescencet=120h/luminescenceuntreated,t=120h). This was fitted to the ^10log compound concentration (conc) by a 4-parameter logistics curve: %−growth=bottom+(top−bottom)/(1+10^(log IC50-conc)*hill)), where hill is the Hill-coefficient, and bottom and top the asymptotic minimum and maximum cell growth that the compound allows in that assay.

A-704 = assay: Cell proliferation assay (ATPlite), drug with vs without cobicistat; format: cell-based; conditions: A-704 cell line; 120 hours incubation
Method: as §1, §2, §3, §4

BT-549 = assay: as above; format: cell-based; conditions: BT-549 cell line; 120 hours incubation
Method: as §1, §2, §3, §4

RPMI-7951 = assay: as above; format: cell-based; conditions: RPMI-7951 cell line; 120 hours incubation
Method: as §1, §2, §3, §4

A-549 = assay: as above; format: cell-based; conditions: A-549 cell line; 120 hours incubation
Method: as §1, §2, §3, §4

K-562 = assay: as above; format: cell-based; conditions: K-562 cell line; 120 hours incubation
Method: as §1, §2, §3, §4

OVCAR-3 = assay: as above; format: cell-based; conditions: OVCAR-3 cell line; 120 hours incubation
Method: as §1, §2, §3, §4

786-O = assay: as above; format: cell-based; conditions: 786-O cell line; 120 hours incubation
Method: as §1, §2, §3, §4

MeWo = assay: as above; format: cell-based; conditions: MeWo cell line; 120 hours incubation
Method: as §1, §2, §3, §4

U-2 OS = assay: as above; format: cell-based; conditions: U-2 OS cell line; 120 hours incubation
Method: as §1, §2, §3, §4

Daoy = assay: as above; format: cell-based; conditions: Daoy cell line; 120 hours incubation
Method: as §1, §2, §3, §4

A-498 = assay: as above; format: cell-based; conditions: A-498 cell line; 120 hours incubation
Method: as §1, §2, §3, §4

T98G = assay: as above; format: cell-based; conditions: T98G cell line; 120 hours incubation
Method: as §1, §2, §3, §4

COLO 205 = assay: as above; format: cell-based; conditions: COLO 205 cell line; 120 hours incubation
Method: as §1, §2, §3, §4

DoTc2 4510 = assay: as above; format: cell-based; conditions: DoTc2 4510 cell line; 120 hours incubation
Method: as §1, §2, §3, §4

SR = assay: as above; format: cell-based; conditions: SR cell line; 120 hours incubation
Method: as §1, §2, §3, §4

A-204 = assay: as above; format: cell-based; conditions: A-204 cell line; 120 hours incubation
Method: as §1, §2, §3, §4

BxPC-3 = assay: as above; format: cell-based; conditions: BxPC-3 cell line; 120 hours incubation
Method: as §1, §2, §3, §4

MIA PaCa-2 = assay: as above; format: cell-based; conditions: MIA PaCa-2 cell line; 120 hours incubation
Method: as §1, §2, §3, §4

PA-1 = assay: as above; format: cell-based; conditions: PA-1 cell line; 120 hours incubation
Method: as §1, §2, §3, §4

MOLT-4 = assay: as above; format: cell-based; conditions: MOLT-4 cell line; 120 hours incubation
Method: as §1, §2, §3, §4

SUP-T1 = assay: as above; format: cell-based; conditions: SUP-T1 cell line; 120 hours incubation
Method: as §1, §2, §3, §4

SK-N-AS = assay: as above; format: cell-based; conditions: SK-N-AS cell line; 120 hours incubation
Method: as §1, §2, §3, §4

SHP-77 = assay: as above; format: cell-based; conditions: SHP-77 cell line; 120 hours incubation
Method: as §1, §2, §3, §4

FaDu = assay: as above; format: cell-based; conditions: FaDu cell line; 120 hours incubation
Method: as §1, §2, §3, §4

DLD-1 = assay: as above; format: cell-based; conditions: DLD-1 cell line; 120 hours incubation
Method: as §1, §2, §3, §4

A-427 = assay: as above; format: cell-based; conditions: A-427 cell line; 120 hours incubation
Method: as §1, §2, §3, §4

A388 = assay: as above; format: cell-based; conditions: A388 cell line; 120 hours incubation
Method: as §1, §2, §3, §4

SW948 = assay: as above; format: cell-based; conditions: SW948 cell line; 120 hours incubation
Method: as §1, §2, §3, §4

Hs 578T = assay: as above; format: cell-based; conditions: Hs 578T cell line; 120 hours incubation
Method: as §1, §2, §3, §4

Cc1nc(Nc2ncc(C(=O)Nc3c(C)cccc3Cl)s2)cc(N2CCN(CCO)CC2)n1 [dasatinib]
Fold change in IC50 (IC50 [Drug + Cobicistat]/IC50 [Drug]) (TT): 0.8 fold
Fold change in IC50 (IC50 [Drug + Cobicistat]/IC50 [Drug]) (A-704): 1.0 fold
Fold change in IC50 (IC50 [Drug + Cobicistat]/IC50 [Drug]) (BT-549): 1.5 fold
Fold change in IC50 (IC50 [Drug + Cobicistat]/IC50 [Drug]) (RPMI-7951): 3.0 fold
Fold change in IC50 (IC50 [Drug + Cobicistat]/IC50 [Drug]) (A-549): 1.0 fold
Fold change in IC50 (IC50 [Drug + Cobicistat]/IC50 [Drug]) (K-562): 1.1 fold
Fold change in IC50 (IC50 [Drug + Cobicistat]/IC50 [Drug]) (OVCAR-3): 1.6 fold
Fold change in IC50 (IC50 [Drug + Cobicistat]/IC50 [Drug]) (786-O): 1.6 fold
Fold change in IC50 (IC50 [Drug + Cobicistat]/IC50 [Drug]) (MeWo): 1.0 fold
Fold change in IC50 (IC50 [Drug + Cobicistat]/IC50 [Drug]) (U-2 OS): 4.0 fold
Fold change in IC50 (IC50 [Drug + Cobicistat]/IC50 [Drug]) (Daoy): 3.2 fold
Fold change in IC50 (IC50 [Drug + Cobicistat]/IC50 [Drug]) (A-498): 1.4 fold
Fold change in IC50 (IC50 [Drug + Cobicistat]/IC50 [Drug]) (T98G): 2.3 fold
Fold change in IC50 (IC50 [Drug + Cobicistat]/IC50 [Drug]) (COLO 205): 1.2 fold
Fold change in IC50 (IC50 [Drug + Cobicistat]/IC50 [Drug]) (DoTc2 4510): 3.0 fold
Fold change in IC50 (IC50 [Drug + Cobicistat]/IC50 [Drug]) (SR): 1.9 fold
Fold change in IC50 (IC50 [Drug + Cobicistat]/IC50 [Drug]) (A-204): 2.2 fold
Fold change in IC50 (IC50 [Drug + Cobicistat]/IC50 [Drug]) (BxPC-3): 2.2 fold
Fold change in IC50 (IC50 [Drug + Cobicistat]/IC50 [Drug]) (MIA PaCa-2): 2.2 fold
Fold change in IC50 (IC50 [Drug + Cobicistat]/IC50 [Drug]) (PA-1): 2.6 fold
Fold change in IC50 (IC50 [Drug + Cobicistat]/IC50 [Drug]) (MOLT-4): 1.1 fold
Fold change in IC50 (IC50 [Drug + Cobicistat]/IC50 [Drug]) (SUP-T1): 1.4 fold
Fold change in IC50 (IC50 [Drug + Cobicistat]/IC50 [Drug]) (SK-N-AS): 1.6 fold
Fold change in IC50 (IC50 [Drug + Cobicistat]/IC50 [Drug]) (SHP-77): 1.4 fold
Fold change in IC50 (IC50 [Drug + Cobicistat]/IC50 [Drug]) (FaDu): 2.1 fold
Fold change in IC50 (IC50 [Drug + Cobicistat]/IC50 [Drug]) (DLD-1): 1.4 fold
Fold change in IC50 (IC50 [Drug + Cobicistat]/IC50 [Drug]) (A-427): 5.8 fold
Fold change in IC50 (IC50 [Drug + Cobicistat]/IC50 [Drug]) (A388): 1.9 fold
Fold change in IC50 (IC50 [Drug + Cobicistat]/IC50 [Drug]) (SW948): 1.2 fold
Fold change in IC50 (IC50 [Drug + Cobicistat]/IC50 [Drug]) (Hs 578T): 2.5 fold
